Results as given in patent publication US20240261410A1, “SODIUM DE[…] ACID AS […]” (priority 2023, published 2024).

Experiments:
[1] = test system: Mycobacterium smegmatis mc^2 155; assay: MIC and MBIC (growth and biofilm formation), two-fold broth dilution in TYG; type: cell-based
Experimental: MICs and MBICs were evaluated using two-fold broth dilution series in 96-well round-bottom microtiter plates. […]
Two-fold dilutions were then prepared as follows. […] The box was placed into the 37° C. incubator and microbial growth and biofilm formation were assessed visually on a daily basis for six days. […]

[2] = test system: Saccharomyces cerevisiae NRRL Y-139; assay: MIC, two-fold broth dilution in TYG, 96-well microtiter plates; type: cell-based; conditions: TunR2 in DMSO, TunR2-DOC and DOC in water, table prints no unit (dilution series in μg/mL)
Experimental: (§1) Seed cultures of Bacillus subtilis ATCC 6633, Escherichia coli ATCC 9637, Mycobacterium smegmatis mc^2 155, and Saccharomyces cerevisiae NRRL Y-139 were started from freezer stocks and grown in tryptone-yeast extract-glucose (TYG) broth for 24 hours at 27° C. Microbial dilutions were prepared as follows. Sterile PBS (phosphate buffer saline, 1 mL) was added to a glass tube using a disposable 10 mL pipet. Using a sterile loop microbial material was transferred from an agar plate, and the turbidity was measured and adjusted to 1.0 Macfarlane units. The inoculum dilution was then prepared. To a sterile 50 mL blue-capped centrifuge tube, 50 mL TYG stock media were added using a 25 mL disposable pipet. To this tube was then added 1 mL of the microbial dilution, and the contents were mixed by vortexing (this will give a 1:50 v/v dilution). This 1:50 v/v dilution inoculum was dispensed using a multichannel pipet, adding 100 μL to each well of a 96-well round-bottom microtiter plate.
(§2) MICs and MBICs were evaluated using two-fold broth dilution series in 96-well round-bottom microtiter plates. Diluted solutions were prepared by adding 20 μl of the 1 mg/mL stock of the TunR2 to 1.980 mL of TYG in a 15 mL blue-capped centrifuge tube for a total of 2 mL volume at 10 μg/mL. […] A blank of 20 μl dimethyl sulfoxide (DMSO) up to 2 mL TYG was also included. The microtiter plates were then set up as follows. To wells 1, 2, and 3 of the first row (A row) of the microtiter plate 200 μl of TYG media control were added. To wells 4, 5, and 6 in row A of the plate 200 μl TYG+TunR2 (10 μg/mL) were added. To wells 7, 8, and 9 in row A of the plate, 200 μl TYG+DOC (5 μg/mL) were added. And to wells 10, 11, and 12 in row A of the plate, 200 μl TYG+TunR2 (10 μg/mL)+DOC (5 μg/mL) were added. To the remaining wells of the microtiter plate 100 μl of the sterile TYG liquid media were added.
(§3) Two-fold dilutions were then prepared as follows. […] The box was placed into the 37° C. incubator and microbial growth and biofilm formation were assessed visually on a daily basis for six days.

[3] = test system: Escherichia coli ATCC 9637; assay: as above; type: cell-based; conditions: TunR2 in DMSO, TunR2-DOC and DOC in water, table prints no unit (dilution series in μg/mL)
Experimental: as §1, §2, §3

[4] = test system: Bacillus subtilis ATCC 6633; assay: as above; type: cell-based; conditions: TunR2 in DMSO, TunR2-DOC and DOC in water, table prints no unit (dilution series in μg/mL)
Experimental: as §1, §2, §3

[5] = DOSY-NMR, 10 mM in D2O, 600 MHz, not a partition coefficient
Experimental: 1H and 2D NMR (COSY, HSQC, and HMBC) spectra were recorded on a Bruker Avance III 500 MHz spectrometer operating at 125 MHz. The spectra were obtained in methanol-d4 or DMSO-d6 using residual solvent signals as internal standards. Diffusion orientated (DOSY) NMR spectra were obtained on a JEOL 600 mHz instrument using DOSY pulse sequences provide by the manufacturer.
The diffusion constants (log D) of residual deuterated water (HDO) and methanol (MeOD) are also indicated on the graphs. The corresponding ^1H-NMR spectra are shown above the graphs. All spectra were acquired at 600 MHz.

[6] = Stability of the aqueous DOC solutions on standing at room temperature; type: physicochemical; conditions: 18 hours at room temperature
Experimental: (§4) The modified tunicamycin TunR2 solid powder (8 mg, […]) and DOC solid powder (4.4 mg, […]) were vortexed together in an equimolar ratio, and was prepared in water for injection (3 mL) and stirred until dissolved. If needed, the pH was adjusted to 5.8 by addition of 10% acetic acid. The TunR2 was initially insoluble under these conditions, but began to dissolve after 5 minutes at 50° C. (in the range of about 50° C. to about 70° C.) and was completely soluble after 10 minutes at this temperature (FIG. 6A to FIG. 6C). […] The native tunicamycin solution became somewhat hazy after this time, but was readily clarified on gentle re-warming.
(§5) The present work undertaken to develop a water-soluble TunR2 formulation solubilized by sodium deoxycholate to reduce the solvent toxicity and to improve the physiochemical properties. Solutions were prepared either by mixing together TunR2 and DOC powders in equimolar portions and adding water, or by preparing a DOC aqueous stock solution and adding this directly to the TunR2. At 10 mg/mL, the TunR2 was initially insoluble under these conditions, but began to dissolve after 5 minutes at 50° C. and was completely soluble after 10 minutes at this temperature. […] The native tunicamycin solution became somewhat hazy after this time, but was readily clarify on gentle re-warming.

[7] = Solubilization in water with sodium deoxycholate; type: physicochemical; conditions: at 50° C., same conditions for tunicamycin and TunR1
Experimental: as §4, §5

Substance | effect of DOC control in the MIC assays ([1]; DOC at the same concentration as the TunR2) | Minimal Inhibitory Concentration ([1]; first figure of cell MIC/MBIC, TunR2 in DMSO, TunR2-DOC and DOC in water, unit not given) | Minimal Inhibitory Concentration [2] | Minimal Inhibitory Concentration [3] | Minimal Inhibitory Concentration [4] | diffusion constant (log D) [5] | state of aqueous DOC solution after cooling and standing [6] | time to complete dissolution in water with DOC ([7]; 8 mg TunR2 + 4.4 mg DOC in 3 mL water for injection) [min] | time to complete dissolution in water with DOC ([7]; at 10 mg/mL, equimolar DOC) [min]
5β-cholan-24-oic acid-3α, 12α-diol sodium salt [DOC] | no effect | >2.5 | >2.5 | >2.5 | >2.5 | −9.66 |  |  | 
tunicamycin |  |  |  |  |  |  | somewhat hazy | ≤ 5 | ≤ 5
